Earlier results on two compounds are cited in patent US10335452B2, “Method of treating patients with hepatorenal syndrome type 1” (Mallinckrodt Hospital Products IP Limited, priority 2014, dated 2019).

For series [1] the following is noted: in vivo.
For the next series, the system named is HRS-1 patients. The note with it: each listed reaction occurred in more than this share of patients.

Each structure is given as a SMILES string. Positions of bridges follow the written chain, without caps; N, C: chain ends. Residues, ends and D or L forms follow the SMILES beside them.

For `NC(=O)CC[C@@H]1NC(=O)[C@H](Cc2ccccc2)NC(=O)[C@H](Cc2ccc(O)cc2)NC(=O)[C@@H](N)CSSC[C@@H](C(=O)N2CCC[C@H]2C(=O)N[C@@H](CCCN=C(N)N)C(=O)NCC(N)=O)NC(=O)[C@H](CC(N)=O)NC1=O` [vasopressin], the duration of action in series [1] is 30 to 60 min. As for `NCCCC[C@H](NC(=O)[C@@H]1CCCN1C(=O)[C@@H]1CSSC[C@H](NC(=O)CNC(=O)CNC(=O)CN)C(=O)N[C@@H](Cc2ccc(O)cc2)C(=O)N[C@@H](Cc2ccccc2)C(=O)N[C@@H](CCC(N)=O)C(=O)N[C@@H](CC(N)=O)C(=O)N1)C(=O)NCC(N)=O` [terlipressin, N—[N—(N-glycylglycyl)glycyl]-8-L-lysinevasopressin] (H-GGGCYFQNCPKG-NH2; disulfide 4-9 (inferred)), in the series on HRS-1 patients, the “Adverse reaction, share of patients (vomiting, abdominal pain, nausea, diarrhea, intestinal ischemia, dyspnea, sneezing, pulmonary edema and fluid overload)” value is recorded as “more than 10%”. Moreover, the duration of action in series [1] is 120 to 600 min.
